Data reported in patent US8415156B2, “Recombinant laminin-521” (Biolamina AB, priority 2010, dated 2013).

What was measured:
HS181, HS401, H1 cells = assay: Long-term self-renewal of hES cells on LN-521 (Example 2); assay type: cell-based, human
Method: Human ES cells of HS181 and HS401 were cultured on LN-521-coated culture dishes in O3 medium (described in Rodin et al., Nature Biotechnol., vol. 28, pp. 611-615 (2010) with pH was adjusted to 7.35), mTeSR1 (STEMCELL Technologies) and chemically defined and xeno-free TeSR2 (STEMCELL Technologies) at 37° C., 5% CO2. Initially, cells of the lines were transferred onto a LN-521 coating from a human feeder cell layer by careful scratching using a sterile knife with subsequent trypsinization, or the cells were trypsinized into single cell suspension from a LN-511 coating. The cells were provided once a day with fresh medium pre-warmed in an incubator for one hour, except for the first day after plating, when only a few drops of fresh medium were added. Cells were routinely passed once in 10-12 days by exposure to Trypsin/EDTA (GIBCO Invitrogen Corporation, Paisley, Scotland) for 5 minutes at 37° C., 5% CO2. They were then gently pipetted to break into single-cell suspension and a Defined Trypsin Inhibitor (GIBCO Invitrogen) was added. The cell suspension was centrifuged at 25 rcf for 4 minutes, the supernatant was discarded, the cell pellet was resuspended in prewarmed O3 medium, and the cells were then passed through a 40 μm sieve. Subsequently, the cells were plated on new LN-521-coated dishes at a concentration of 30,000 cells/cm^2 in 1:25-1:30 split ratios. Control cells of the same line were cultured on Matrigel (STEMCELL Technologies) and LN-511 in O3 medium as described previously.^9
For defined and xeno-free cultures, TeSR2 (STEMCELL Technologies) medium and defined free from any animal derived component TrypLE™ Select (GIBCO Invitrogen Corporation, Paisley, Scotland) enzyme were used. The cells were passed every 10-14 days by exposure to TrypLE™ Select for 4-5 minutes at 37° C., 5% CO2. Then, the enzyme was carefully aspirated and prewarmed TeSR2 medium was added. After that, the cells were gently pipetted to break into single-cell suspension, centrifuged, the supernatant was discarded, and the cell pellet was resuspended in prewarmed TeSR2. The cells were then passed through a 40 μm sieve and plated on a fresh LN-521 coated dish.

hES cells = assay: Embryoid body formation; assay type: cell-based, human; details: same three cultures as teratoma test
Method: ES cells from LN-521 coated cell culture dishes were exposed to TrypLE™ Select for one minute at 37° C., 5% CO2, washes two times with a medium, broken into large pieces and cultured in suspension in low adhesion plates. The medium used for this was Knockout DMEM (GIBCO Invitrogen Corporation) supplemented with 2 mM L-glutamine, 20% fetal calf serum (GIBCO Invitrogen Corporation), 0.1 mM β-mercaptoethanol (GIBCO Invitrogen Corporation) and 1% non-essential amino acids (GIBCO Invitrogen Corporation). After 1-2 weeks in suspension, the embryoid bodies were transferred onto gelatin coated tissue cell culture 96-well plates (Sarstedt), cultured for 1-2 weeks, then fixed, stained with antibodies against markers of all three embryonic germ line layers (smooth muscle actin, MAP-2 and α-fetoprotein) and analyzed as described above for immunofluorescence.

Substance: LN-521: protein formed by joining α5, β2 and γ1 chains together; human recombinant, produced in HEK293 cells
- passages of proliferation, HS401 cells (HS181, HS401, H1 cells; O3 medium, 2 months): ≥ 5 passages
- passages of proliferation, H1 cells (HS181, HS401, H1 cells; O3 medium, 6 months): ≥ 15 passages
- passages of proliferation, HS181 cells (HS181, HS401, H1 cells; O3 medium, 9 months): at least 24 passages
- passages cultured, HS401 cells (HS181, HS401, H1 cells; TeSR2, TrypLE Select, xeno-free, 1.5 months): 4 passages
- passages cultured, H1 cells (HS181, HS401, H1 cells; TeSR2, TrypLE Select, xeno-free, 5 months): 12 passages
- plating efficacy after a passage in TeSR2 compared with O3 or mTeSR1 media (HS181, HS401, H1 cells; TeSR2 medium and TrypLE Select): slightly lower
- differentiation in vitro: embryoid bodies expressing markers of mesoderm, ectoderm and endoderm (hES cells): retained the competence to form embryoid bodies
